Key:
[1] = refractive index (Na D-line) (dimensionless); conditions: 101.33 kPa, Liquid
[2] = xn = mol fraction of the nth substance listed
[3] = refractive index (Na D-line) (dimensionless); xn = mol fraction of the nth substance listed; conditions: 101 kPa, Liquid

CC[S+]([O-])CC [diethyl sulfoxide]
Conditions | surface tension liquid-gas [mN/m]
298.15 K | 34.6
303.15 K | 34.1
308.15 K | 33.7
313.15 K | 33.2
318.15 K | 32.7
323.15 K | 32.4
328.15 K | 32

[1]
Conditions | refractive index
298.15 K | 1.468
303.15 K | 1.466
308.15 K | 1.464

CC[S+]([O-])CC [diethyl sulfoxide] + O
Conditions | refractive index, [3] | surface tension liquid-gas, [2] [mN/m]
298.15 K, x1 = 0.0099 | 1.3415 | 65.5
298.15 K, x1 = 0.0207 | – | 62.5
298.15 K, x1 = 0.0513 | 1.3735 | 55.4
298.15 K, x1 = 0.1001 | 1.399 | 50.9
298.15 K, x1 = 0.1999 | 1.43 | 46
298.15 K, x1 = 0.2999 | 1.446 | 42.8
298.15 K, x1 = 0.4091 | 1.457 | –
298.15 K, x1 = 0.4908 | – | 40.4
298.15 K, x1 = 0.5189 | 1.458 | –
298.15 K, x1 = 0.5803 | 1.4605 | –
298.15 K, x1 = 0.7123 | 1.4645 | 37.6
298.15 K, x1 = 0.7741 | 1.466 | –
303.15 K, x1 = 0.0099 | 1.332 | 64.8
303.15 K, x1 = 0.0207 | – | 61.5
303.15 K, x1 = 0.0513 | 1.3675 | 54.9
303.15 K, x1 = 0.1001 | 1.373 | 50.2
303.15 K, x1 = 0.1999 | 1.428 | 45.2
303.15 K, x1 = 0.2999 | 1.4445 | 42
303.15 K, x1 = 0.4091 | 1.4555 | –
303.15 K, x1 = 0.4908 | – | 39.8
303.15 K, x1 = 0.5189 | 1.457 | –
303.15 K, x1 = 0.5803 | 1.4585 | –
303.15 K, x1 = 0.7123 | 1.463 | 37.1
303.15 K, x1 = 0.7741 | 1.464 | –
308.15 K, x1 = 0.0099 | 1.3315 | 64.1
308.15 K, x1 = 0.0207 | – | 60.4
308.15 K, x1 = 0.0513 | 1.3685 | 54
308.15 K, x1 = 0.1001 | 1.372 | 49.5
308.15 K, x1 = 0.1999 | 1.4265 | 44.2
308.15 K, x1 = 0.2999 | 1.443 | 41.9
308.15 K, x1 = 0.4091 | 1.453 | –
308.15 K, x1 = 0.4908 | – | 39.3
308.15 K, x1 = 0.5189 | 1.455 | –
308.15 K, x1 = 0.5803 | 1.4565 | –
308.15 K, x1 = 0.7123 | 1.4615 | 37
308.15 K, x1 = 0.7741 | 1.462 | –
313.15 K, x1 = 0.0099 | – | 62.8
313.15 K, x1 = 0.0207 | – | 59.3
313.15 K, x1 = 0.0513 | – | 53.1
313.15 K, x1 = 0.1001 | – | 48.4
313.15 K, x1 = 0.1999 | – | 47.1
313.15 K, x1 = 0.2999 | – | 44.3
313.15 K, x1 = 0.4908 | – | 38.6
313.15 K, x1 = 0.7123 | – | 36.5
318.15 K, x1 = 0.0099 | – | 61.8
318.15 K, x1 = 0.0207 | – | 58.4
318.15 K, x1 = 0.0513 | – | 52.4
318.15 K, x1 = 0.1001 | – | 47.7
318.15 K, x1 = 0.1999 | – | 46.1
318.15 K, x1 = 0.2999 | – | 43.2
318.15 K, x1 = 0.4908 | – | 38
318.15 K, x1 = 0.7123 | – | 35.7
323.15 K, x1 = 0.0099 | – | 60.8
323.15 K, x1 = 0.0207 | – | 56.8
323.15 K, x1 = 0.0513 | – | 50.5
323.15 K, x1 = 0.1001 | – | 46.5
323.15 K, x1 = 0.1999 | – | 45.3
323.15 K, x1 = 0.2999 | – | 41.6
323.15 K, x1 = 0.4908 | – | 37.3
323.15 K, x1 = 0.7123 | – | 35
328.15 K, x1 = 0.0099 | – | 59.9
328.15 K, x1 = 0.0207 | – | 56.4
328.15 K, x1 = 0.0513 | – | 49.7
328.15 K, x1 = 0.1001 | – | 45.7
328.15 K, x1 = 0.1999 | – | 43.4
328.15 K, x1 = 0.2999 | – | 40.7
328.15 K, x1 = 0.4908 | – | 36.6
328.15 K, x1 = 0.7123 | – | 34.4

From the NIST ThermoML archive (doi:10.1021/je7001013)
